Source: ChEMBL document CHEMBL3588811, “Boehmenan, a lignan from Hibiscus ficulneus, showed Wnt signal inhibitory activity” (Bioorg Med Chem Lett, 2015)
Active and inactive are the calls of the source. No cut-off for these calls is given here.

Columns and labels:
HEK293 [1] = assay: Inhibition of Wnt/beta-catenin signaling in HEK293 cells stably transfected with TOP reporter gene assessed as TCF/beta-catenin transcriptional activity after 24 hrs by TOP activity/luciferase reporter gene assay; format: cell-based; conditions: Homo sapiens; for IC50: HEK293, 24 h
HEK293 [2] = assay: Cytotoxicity against human HEK293 cells after 24 hrs by fluorometric microculture cytotoxicity assay; format: cell-based; conditions: HEK293, 24 h
HCT-116 = assay: Cytotoxicity against human Wnt-dependent HCT116 cells after 24 hrs by fluorometric microculture cytotoxicity assay; format: functional, cell-based; conditions: HCT-116, 24 h
[3] = Cytotoxicity against human Wnt-dependent DLD1 cells after 24 hrs by fluorometric microculture cytotoxicity assay; format: functional, cell-based; conditions: DLD-1, 24 h
RKO = assay: Cytotoxicity against human Wnt-independent RKO cells after 24 hrs by fluorometric microculture cytotoxicity assay; format: functional, cell-based
SW480 = assay: Cytotoxicity against human Wnt-dependent SW480 cells after 24 hrs by fluorometric microculture cytotoxicity assay; format: functional, cell-based; conditions: SW480, 24 h
HEK293 [4] = assay: Inhibition of Wnt/beta-catenin signaling in HEK293 cells stably transfected with FOP reporter gene assessed as TCF/beta-catenin transcriptional activity after 24 hrs by FOP activity/luciferase reporter gene assay; format: cell-based; conditions: Homo sapiens
HEK293 [5] = assay: Reduction in c-myc level in human HEK293 cell nucleus stably transfected with TOP reporter gene at 1 to 20 uM after 24 hrs by Western blot analysis; format: functional, cell-based
HEK293 [6] = assay: Reduction in beta-catenin level in human HEK293 cell nucleus stably transfected with TOP reporter gene at 20 uM after 24 hrs by Western blot analysis in presence of 1 uM MG132; format: functional, cell-based
HEK293 [7] = assay: Reduction in beta-catenin level in human HEK293 cell nucleus stably transfected with TOP reporter gene at 1 to 20 uM after 24 hrs by Western blot analysis; format: functional, cell-based
HEK293 [8] = assay: Reduction in beta-catenin level in human HEK293 cell cytosol stably transfected with TOP reporter gene at 1 to 20 uM after 24 hrs by Western blot analysis; format: functional, cell-based

## CC1(C)CC[C@]2(C(=O)O)CC[C@]3(COC(=O)/C=C/c4ccc(O)c(O)c4)C(=CC[C@@H]4[C@@]5(C)CC[C@H](OC(=O)/C=C/c6ccc(O)c(O)c6)C(C)(C)[C@@H]5CC[C@]43C)[C@@H]2C1
HEK293 [1]
  IC50: 14.8 µM
HEK293 [2]
  IC50: 29.3 µM
HCT-116
  IC50: > 40 µM
[3]
  IC50: > 40 µM
RKO
  IC50: > 40 µM
SW480
  IC50: > 40 µM

## COc1cc(/C=C/C(=O)OCCCc2ccc(O[C@@H](COC(=O)/C=C/c3ccc(O)c(OC)c3)[C@@H](O)c3ccc(O)c(OC)c3)c(O)c2)ccc1O
HEK293 [1]
  inhibition: Dose-dependent effect
  IC50: 4.5 µM
HEK293 [2]
  IC50: 24.2 µM
HCT-116
  IC50: > 39 µM
[3]
  IC50: > 40 µM
RKO
  IC50: 23 µM
HEK293 [4]
  Activity: inactive
SW480
  IC50: > 40 µM

## COc1cc(/C=C/C(=O)OCCCc2ccc(O[C@@H](COC(=O)/C=C/c3ccc(O)c(OC)c3)[C@@H](O)c3ccc(O)c(OC)c3)c(OC)c2)ccc1O (relative stereo)
HEK293 [1]
  inhibition: Dose-dependent effect
  IC50: 6.3 µM
HEK293 [2]
  IC50: 26.4 µM
HCT-116
  IC50: > 40 µM
[3]
  IC50: > 40 µM
RKO
  IC50: 36.1 µM
HEK293 [4]
  Activity: inactive
SW480
  IC50: > 40 µM

## COc1cc(/C=C/C(=O)OCCCc2cc(OC)c3c(c2)[C@@H](COC(=O)/C=C/c2ccc(O)c(OC)c2)[C@H](c2cc(OC)c(O)c(OC)c2)O3)ccc1O
HEK293 [1]
  inhibition: Dose-dependent effect
  IC50: 1.9 µM
HEK293 [2]
  IC50: 36.1 µM
HCT-116
  IC50: > 40 µM
[3]
  IC50: > 40 µM
RKO
  IC50: > 40 µM
HEK293 [4]
  Activity: inactive
SW480
  IC50: > 40 µM

## COc1cc(/C=C/C(=O)OCCCc2cc(OC)c3c(c2)[C@@H](COC(=O)/C=C/c2ccc(O)c(OC)c2)[C@H](c2ccc(O)c(OC)c2)O3)ccc1O
HEK293 [5]
  inhibition: Active
HEK293 [1]
  inhibition: Dose-dependent effect
  IC50: 1 µM
HEK293 [2]
  IC50: 30.3 µM
HCT-116
  IC50: > 22.8 µM
[3]
  IC50: > 40 µM
RKO
  IC50: 25.4 µM
HEK293 [4]
  Activity: inactive
HEK293 [6]
  inhibition: inactive
SW480
  IC50: > 40 µM
HEK293 [7]
  inhibition: Active
HEK293 [8]
  inhibition: Active
